In patent publication EP0268178A1, “Pyrrolo-benzimidazoles, medicaments containing these compounds and process for their preparation” (Dr. Karl Thomae GmbH, priority 1986, dated 1988):

System: narkotisierten Katze
Test: Blood-pressure-lowering and positive inotropic effect in the anaesthetised cat
Type: in vivo, Katzen
Settings: mean of 2 cats; for diastol. Blutdruckänderung in mmHg: anaesthetised cats (Pentobarbital-Natrium), 0,3 mg/kg i.v., Aorta abdominalis; for Zunahme von dp/dt in %: dp/dt max from left ventricular pressure
Experimental: 1. Bestimmung der blutdrucksenkenden und ositiv inotropen Wirkung an der narkotisierten Katze:
Die Untersuchungen wurden an Katzen durchgeführt, die mit Pentobarbital-Natrium (40 mg/kg i.p. + 8 mg/kg/Stunde) narkotisiert waren. Die Tiere atmeten spontan. Der arterielle Blutdruck wurde in der Aorta abdominalis mit einem StathamDruckwandler (P 23 Dc) gemessen. Für die Erfassung der positiv inotropen Wirkung wurde mit einem Kathetertipmanometer (Millar PC-350 A) der Druck in der linken Herzkammer gemessen. Daraus wurde der Kontraktilitätsparameter dp/dt max mittels eines Analogdifferenzierers gewonnen. Die zu untersuchende Substanz wurde in eine Vena femoralis injiziert. Als Lösungsmittel diente Polydiol 200. Die Substanz wurde an 2 Katzen geprüft, Dosis 0,3 mg/kg i.v..

[1] = anaesthetised cats, 0,3 mg/kg i.v.

| Structure (SMILES) | diastol. Blutdruckänderung in mmHg [mmHg] | Wirkungsdauer (Halbwertszeit) [1] [Minuten] | Zunahme von dp/dt in % [1] | Zunahme der Herzfrequenz [1] |
| --- | --- | --- | --- | --- |
| CCN1C(=O)C(C)(C)c2cc3[nH]c(-c4ccco4)nc3cc21 [B, 5-Äthyl-7,7-dimethyl-2-(2-furyl)-6,7-dihydro-3H,5H-pyrrolo[2,3-f]benzimidazol-6-on] | -31 | 26 | +49% |  |
| CCN1C(=O)C(C)(C)c2cc3[nH]c(-c4ocnc4C)nc3cc21 [D, 5-Äthyl-7,7-dimethyl-2-(4-methyl-oxazol-5-yl)-6,7-dihydro-3H,5H-pyrrolo[2,3-f]benzimidazol-B-on] | -31 | 7 | +50% |  |
| CCN1C(=O)C(C)(C)c2cc3[nH]c(-c4ccc(S(C)(=O)=O)cc4)nc3cc21 [C, 5-Äthyl-7,7-dimethyl-2-(4-methylsulfonyl-phenyl)-6,7-dihydro-3H,5H-pyrrolo[2,3-f]benzimidazol-6-on] | -16 | >60 | +91% | +12% |
| CCN1C(=O)C(C)(C)c2cc3[nH]c(-c4ccncc4)nc3cc21 [A, 5-Äthyl-7,7-dimethyl-2-(4-pyridyl)-6,7-dihyro-3H,5H-pyrrolo[2,3-f]benzimidazol-6-on] | -33 | >80 | +55% |  |
